Consider six molecules from patent publication EP0542371A1, “Saccharin derivative proteolytic enzyme inhibitors” (STERLING WINTHROP INC., priority 1991, dated 1993).

As usually defined, the pKa is the pH at which an ionisable group is half protonated. A low value points to a stronger acid or weaker base.

Series [1] addresses T1, human leukocyte elastase (Homo sapiens, UniProt P08246).
T1 sequence (P08246 30-267): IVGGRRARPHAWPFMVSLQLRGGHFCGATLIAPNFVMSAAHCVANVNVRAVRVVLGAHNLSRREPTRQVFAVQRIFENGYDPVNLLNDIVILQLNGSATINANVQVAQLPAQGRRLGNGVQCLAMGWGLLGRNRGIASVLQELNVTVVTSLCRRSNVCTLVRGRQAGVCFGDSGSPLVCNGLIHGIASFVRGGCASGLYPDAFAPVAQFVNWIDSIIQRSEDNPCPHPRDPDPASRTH
Put plainly: Inhibition of human leukocyte elastase, in vitro (Ki* = koff/kon). Type of series: biochemical. The note with it: Ki* = koff/kon (rate of reactivation divided by rate of inactivation of the enzyme); calculated from measured koff and kon.
Method: Ki*, which is defined as the rate of reactivation of the enzyme divided by the rate of inactivation of the enzyme (koff/on), was therefore determined instead. The values of koff and kon were measured and Ki* was then calculated.
The value of kon was determined by measuring the enzyme activity of an aliquot of the enzyme as a function of the time after addition of the test compound (inhibitor). […] The value of kon was then obtained by the equation kon = kobs[I] wherein [I] is the concentration of the inhibitor. The value of koff was similarly determined, and Ki* was then obtained by the equation Ki* = koff/kon.

The nature of series [2]: pKa by ultraviolet spectrophotometric determination in water. Type of series: physicochemical.
A short description of series [3]: pKa determination by titration in water. Type of series: physicochemical.

Turning to `COc1cc(C(C)C)c2c(c1)S(=O)(=O)N(COC(=O)c1c(Cl)ccc(OCCN3CCOCC3)c1Cl)C2=O` [Example 2, 2-{2,6-dichloro-3-[2-(4-morpholinylethoxy)]benzoyloxymethyl}-4-isopropyl-6-methoxysaccharin], the Ki in series [1] is 0.014 nM.
As for `NC(=O)c1nn[nH]c1C(N)=O` [1,2,3-triazole-4,5-dicarboxamide], the pKa in series [2] is 5.3.
For `Sc1nnnn1-c1ccccc1` [1-phenyltetrazole-5-thiol], the pKa in series [2] stood at 2.9.
With `COC(=O)c1nn[nH]c1C(=O)OC` [1,2,3-triazole-4,5-dicarboxylic acid dimethyl ester], the pKa in series [3] came out at 4.4.
Turning to `N#Cc1nn[nH]c1C#N` [1,2,3-triazole-4,5-dinitrile], the pKa in series [3] was determined as 1.6.
As to `COc1cc(C(C)C)c2c(c1)S(=O)(=O)N(Cn1nnc(S(=O)(=O)C(C)(C)C)c1S(=O)(=O)C(C)(C)C)C2=O` [Example 1, 2-[4,5-di(t-butylsulfonyl)-1,2,3-triazol-1-yl]methyl-4-isopropyl-6-methoxysaccharin], in series [1], the Ki was 0.024 nM.
